The numbers were not newly measured in patent publication US20240173233A1, “COSMETIC SACHET FOR REDUCING AGE-RELATED SYMPTOMS IN HUMAN SKIN” (Bloo Pharmapeutica Inc., priority 2022, published 2024), which cites them from elsewhere.

Series [1] relates to elastin and collagen 2A1. The note with it: MB treatment of skin.
Series [2] relates to cultured human skin fibroblasts derived from healthy donors and from patients with progeria.
Series [3] has as its system 3D skin model.
The subject of series [4] is skin fibroblast. The note with it: in comparison with other widely used general and mitochondrial-targeting antioxidants.

As for `CN(C)c1ccc2nc3ccc(=[N+](C)C)cc-3sc2c1.[Cl-]` [methylene blue, [7-(dimethylamino)phenothiazine-3-ylidene]-dimethylazanium chloride], in series [1], the “expression of extracellular matrix proteins” value was “upregulation of elastin and collagen 2A1”. In addition, the “reactive oxygen species (ROS) scavenging efficacy” value in series [2] is reported as “potent reactive oxygen species (ROS) scavenging efficacy”. Moreover, in series [3], the dermis thickness result is “increased skin hydration and dermis thickness”; the skin hydration result is “increased skin hydration”; the skin viability result is listed as “improved skin viability”; the wound healing entry is “promoted wound healing”. In series [4], the delaying cellular senescence entry is recorded as “more effective” and the “stimulating skin fibroblast proliferation” value is “more effective”.
